Where “and” joins values, the source holds several entries; their conditions need not be identical. Equal values may be shown once.
How the values were obtained:
[1] = test system: MCF-7 breast cancer cells; assay: Irreversible inhibition of cell growth, Stage 1 and Stage 2 (Coulter cell counter); assay type: cell-based; conditions: for effect on cell growth compared with controls, Stage 1: 5 μm and 1 μm; for effect on cell growth compared with controls, Stage 1 / cell numbers, % of the control cell number, Stage 1: 6 days; for effect on cell numbers, Stage 2 (irreversible growth inhibition): re-seeded after 6-day treatment, further 6 days without drug
Experimental: MCF-7 breast cancer cells were seeded into multi-well culture plates at a density of 10^5 cells/well. Cells were allowed to attach and grown until about 30% confluent when they were treated as follows:
Cells were grown for 6 days in growth medium containing the above drugs with changes of medium/drug every 3 days. At the end of this period cell numbers were counted using a Coulter cell counter.
After treatment of cells for a 6-day period with the above drugs cells were re-seeded at a density of 10^4 Cells/well. No further treatments were added. Cells were allowed to continue to grow for a further 6 days in the presence of growth medium. At the end of this period cell numbers were again counted.
Stages 1 and 2 described above were repeated using Control—no treatment, EMATE 20 μM and EMATE 5 μM.
MCF-7 breast cancer cells were seeded into multi-well culture plates at a density of 10^5 cells/well. Cells were allowed to attach and grown until about 30% confluent when they were treated as follows: • Control—no treatment • Compound of Interest (COI) 20 μM
Cells were grown for 6 days in growth medium containing the COI with changes of medium/COI every 3 days. At the end of this period cell numbers were counted using a Coulter cell counter.
After treatment of cells for a 6-day period with the COI cells were re-seeded at a density of 10^4 cells/well. No further treatments were added. Cells were allowed to continue to grow for a further 6 days in the presence of growth medium. At the end of this period cell numbers were again counted.

MCF7 cells [2] = assay: Proportion of cells in mitosis (PI stained cytospins, confocal microscopy); assay type: cell-based; conditions: 24 hours (control 4%)
Experimental: To determine the proportion of cells in mitosis, drug treated cells were collected by trypsinisation and cytospins prepared. Cells were fixed in ice cold methanol for 5 minutes, air dried and DNA was stained using propidium iodide (PI) (0.1 mg/ml in phosphate buffered saline (PBS) containing 10% (v/v) newborn calf serum and 0.05% (w/v) sodium azide). Cells were analysed by confocal microscopy using a Zeiss Axiovert 100 M microscope equipped with the LSM 510 confocal system (Zeiss, Jena, Germany).
Effect of estrone derivatives on mitosis in MCF7 cells. MCF7 cells were treated with the indicated compounds for 24 hours. Cells were recovered by trypsinisation and cytospins prepared. DNA was stained with PI and cells in mitosis (i.e., with condensed chromosomes) determined as a percentage of total cells.

CAL51 cells [3] = assay: DNA content by flow cytometry of propidium iodide stained cells; assay type: cell-based; conditions: CAL51, 500 nM
Experimental: (§1) MCF7, CAL51, CAMA1 and ZR-75-1 breast cancer derived cell lines were obtained from ATCC (MCF7, CAMA1, ZR-75-1) or from the Dutrillaux laboratory (CAL51) (22) and maintained in Dulbecco's modified Eagle's medium (DMEM) supplemented with 10% (v/v) fetal calf serum and antibiotics.
(§2) DNA content was determined by flow cytometric analysis of propidium iodide stained cells and TdT-mediated dUTP-nick end labelling (TUNEL), respectively, as described (20). The proportion of cells in G2/M phase of the cell cycle was calculated as a proportion of cells with […] DNA content. The proportion of cells with <G1 DNA content was calculated as a percentage of total cells.

CAMA1 cells [4] = assay: as above; assay type: cell-based; conditions: CAMA1, 500 nM
Experimental: as §1, §2

MCF7 cells [5] = assay: as above; assay type: cell-based; conditions: MCF7, 500 nM
Experimental: as §1, §2

ZR-75-1 cells [6] = assay: as above; assay type: cell-based; conditions: ZR-75-1, 500 nM
Experimental: as §1, §2

CAL51 cells [7] = assay: TUNEL assay; assay type: cell-based; conditions: CAL51, 500 nM for 72 hours
Experimental: as §2
(§3) We used the TUNEL assay to confirm that the cell death detected by flow cytometry of PI stained cells was due to apoptosis. Following exposure to 2-EtEMATE (500 nM for 72 hours) there was a significant increase in the proportion of CAL51 and CAMA1 cells undergoing apoptosis (60% and 37% TUNEL positive cells, respectively) (FIG. 16). By contrast, there was only a modest increase in TUNEL positivity in MCF7 or ZR-75-l cells (7% and 10%, respectively) treated with 2-EtEMATE at this concentration.

CAMA1 cells [8] = assay: TUNEL assay; assay type: cell-based; conditions: CAMA1, 500 nM for 72 hours
Experimental: as §2, §3

MCF7 cells [9] = assay: TUNEL assay; assay type: cell-based; conditions: MCF7, 500 nM for 72 hours
Experimental: as §2, §3

ZR-75-1 cells [10] = assay: TUNEL assay; assay type: cell-based; conditions: ZR-75-1, 500 nM for 72 hours
Experimental: as §2, §3

[11] = test system: MCF7, ZR-75-1, CAL51 and CAMA1 cells; assay: Microtitre plate growth inhibition assay (FIG. 14); assay type: cell-based
[12] = test system: MCF-7 breast cancer cells; assay: Cell Titer 96 cell proliferation assay, 4-day drug exposure; assay type: cell-based; conditions: 4 days
Experimental: (§4) MCF-7 (ER+) and MDA-MB-231 (ER−) breast cancer cells were obtained from the American Type Culture Collection (Rockville, Md.). Cells were routinely cultured in 25 cm^2 culture flasks in Eagle's minimum essential medium (EMEM) with Hepes buffer (20 mM). This medium was supplemented with L-glutamine (2 mM), sodium hydrogen carbonate (10 mM), 1% non-essential amino acids and 5% (v/v) foetal calf serum (FCS). Before adding test compounds, cells were washed with phosphate-buffered saline (PBS) and treatments added in phenol-red free medium containing 2% stripped FCS and supplements. The effects of 2-MeOE1 or 2-MeOEMATE on the growth of MCF-7 cells was assessed using a Cell Titer 96 cell proliferation assay (Promega, Southampton, Hants, UK) according to the manufacturers' instructions. For this, cells (5000 per well) were cultured in medium containing phenol-red and 10% FCS and were exposed to a drug for 4 days before the assay was performed. For MDA-MB-231 cells, cell numbers were determined using a Coulter counter.

[13] = test system: MCF-7 breast cancer cells; assay: Cell morphology by photomicrographs; assay type: cell-based; conditions: 1 μM, 24 h
Experimental: as §4
Photomicrographs of control and treated cells were taken under normal conditions of light and exposure using an Olympus SL35 Type 12 camera under an Olympus CK2 microscope (×100 magnification).

[14] = test system: nitrosomethylurea-induced mammary tumours; assay: Growth of NMU-induced mammary tumours in intact rats; assay type: in vivo, rat; conditions: 20 mg/kg/day, p.o., 11 days, individual animals
Experimental: The effect of 2-MeOEMATE on mammary tumour growth was examined in a preliminary study using Ludwig rats (Harlan Olac, Bicester, UK) in which tumours were induced by inoculation of NMU. Tumour development was monitored regularly and when 0.5-1.0 cm^3 in volume, animals received vehicle (propylene glycol, 200 μl/day, p.o.), 2-MeOEMATE (20 mg/kg/day, p.o.) or 2-MeOE1 (20 mg/kg/day, p.o.) daily for an 11 day period. Tumour length and width was measured with callipers and tumour volumes calculated as described (21).

## CCc1cc2c(cc1O)CC[C@@H]1[C@@H]2CC[C@]2(C)C(=O)CC[C@@H]12 [2-EtE1, 2-Ethylestrone, reference compound]
[1]
  effect on cell growth compared with controls, Stage 1: little effect on cell growth
  effect on cell numbers, Stage 2 (irreversible growth inhibition): little effect on cell numbers
MCF7 cells [2]; 500 nM
  mitotic cells, percentage of total cells: 4%
MCF7 cells [2]; 5 μM
  mitotic cells, percentage of total cells: 6%

## CCc1cc2c(cc1OS(N)(=O)=O)CCC1C2CCC2(C)C(=O)CCC12 (stereo not shown) [2-EtEMATE, 2-Ethylestrone-3-O-sulfamate]
[1]; 1 m (so in the source)
  cell numbers, % of the control cell number, Stage 1: 50%
[1]; 5 μm
  cell numbers, % of the control cell number, Stage 1: 36%
[1]
  effect on cell numbers, Stage 2 (irreversible growth inhibition): severely growth restricted
CAL51 cells [3]; 24 hours
  <G1 DNA content, percent of total cells: 2%
  G1/S, percentage of total cells with a 2N to 4N DNA content: 38%
CAL51 cells [3]; 48 hours
  <G1 DNA content, percent of total cells: 10%
  G1/S, percentage of total cells with a 2N to 4N DNA content: 18%
  G2/M, percentage of total cells with a 2N to 4N DNA content: 82%
CAL51 cells [3]; 72 hours
  <G1 DNA content, percent of total cells: 21%
  G1/S, percentage of total cells with a 2N to 4N DNA content: 32%
  G2/M, percentage of total cells with a 2N to 4N DNA content: 68%
CAL51 cells [3]; 96 hours
  G1/S, percentage of total cells with a 2N to 4N DNA content: 23%
  G2/M, percentage of total cells with a 2N to 4N DNA content: 77%
CAMA1 cells [4]; 24 hours
  <G1 DNA content, percent of total cells: 4%
  G1/S, percentage of total cells with a 2N to 4N DNA content: 33%
CAMA1 cells [4]; 48 hours
  <G1 DNA content, percent of total cells: 16%
  G1/S, percentage of total cells with a 2N to 4N DNA content: 25%
  G2/M, percentage of total cells with a 2N to 4N DNA content: 75%
CAMA1 cells [4]; 72 hours
  <G1 DNA content, percent of total cells: 36%
  G1/S, percentage of total cells with a 2N to 4N DNA content: 33%
  G2/M, percentage of total cells with a 2N to 4N DNA content: 67%
CAMA1 cells [4]; 96 hours
  G1/S, percentage of total cells with a 2N to 4N DNA content: 33%
  G2/M, percentage of total cells with a 2N to 4N DNA content: 67%
MCF7 cells [5]; 24 hours
  <G1 DNA content, percent of total cells: 5%
  G1/S, percentage of total cells with a 2N to 4N DNA content: 63%
  G2/M, percentage of total cells with a 2N to 4N DNA content: 37%
MCF7 cells [5]; 48 hours
  <G1 DNA content, percent of total cells: 5%
  G1/S, percentage of total cells with a 2N to 4N DNA content: 38%
MCF7 cells [5]; 72 hours
  <G1 DNA content, percent of total cells: 12%
  G1/S, percentage of total cells with a 2N to 4N DNA content: 34%
  G2/M, percentage of total cells with a 2N to 4N DNA content: 66%
MCF7 cells [5]; 96 hours
  <G1 DNA content, percent of total cells: 8%
  G1/S, percentage of total cells with a 2N to 4N DNA content: 29%
  G2/M, percentage of total cells with a 2N to 4N DNA content: 71%
ZR-75-1 cells [6]; 24 hours
  <G1 DNA content, percent of total cells: 1%
  G1/S, percentage of total cells with a 2N to 4N DNA content: 84%
  G2/M, percentage of total cells with a 2N to 4N DNA content: 15%
ZR-75-1 cells [6]; 48 hours
  <G1 DNA content, percent of total cells: 6%
  G1/S, percentage of total cells with a 2N to 4N DNA content: 60%
  G2/M, percentage of total cells with a 2N to 4N DNA content: 40%
ZR-75-1 cells [6]; 72 hours
  <G1 DNA content, percent of total cells: 12%
  G1/S, percentage of total cells with a 2N to 4N DNA content: 37%
  G2/M, percentage of total cells with a 2N to 4N DNA content: 60% and 63%
ZR-75-1 cells [6]; 96 hours
  <G1 DNA content, percent of total cells: 9%
  G1/S, percentage of total cells with a 2N to 4N DNA content: 20%
  G2/M, percentage of total cells with a 2N to 4N DNA content: 80%
MCF7 cells [2]; 500 nM
  mitotic cells, percentage of total cells: 29%
MCF7 cells [2]; 5 μM
  mitotic cells, percentage of total cells: 49%
CAL51 cells [7]
  TUNEL positive cells: 60%
CAMA1 cells [8]
  TUNEL positive cells: 37%
MCF7 cells [9]
  TUNEL positive cells: 7%
ZR-75-1 cells [10]
  TUNEL positive cells: 10%
[11]
  lowest dose that gave significant growth inhibition in each cell line: 500 nM

## COc1cc2c(cc1O)CC[C@@H]1[C@@H]2CC[C@]2(C)C(=O)CC[C@@H]12 [2-MeOE1, 2-methoxyoestrone, reference compound]
[12]; 0.1 μM
  inhibition of proliferation of MCF-7 cells: little effect
[12]; 1.0 μM
  inhibition of proliferation of MCF-7 cells: little effect
[12]; 10 μM
  inhibition of proliferation of MCF-7 cells: 19%
[13]
  effect on cell morphology: little effect on cell morphology
[14]
  reduction in tumour volume: little effect on tumour growth and no change in tumour volume and 25%
[1]
  effect on cell growth compared with controls, Stage 1: little effect on cell growth
  effect on cell numbers, Stage 2 (irreversible growth inhibition): little effect on cell numbers

From patent US7078395B1, “Methods for treating or preventing cancer by preventing, inhibiting or arresting cell cycling” (priority 1999, dated 2006)
